According to patent US20240141294A1, “CGMP COMPLIANT PRODUCTION AND EXPANSION OF PLASMACYTOID DENDRITIC CELLS FROM HEMATOPOIETIC STEM AND PROGENITOR CELLS” (AARHUS UNIVERSITET, priority 2021, published 2024):

System: HSPC-pDCs
Assay: RNA-sequencing of HSPC-pDCs generated with or without ascorbic acid
Assay type: cell-based, human
Settings: for Log2 (+AA/−AA) / +AA FPKM: Table 2
Experimental: HSPCs were thawed and 1×10^5 cells were seeded in DC medium with or without supplementation of ascorbic acid (AA). Following 16 days of differentiation with or without AA in the medium, pDCs were isolated by immunomagnetic depletion of non-pDCs, and HSPCs-pDCs were then primed for 72 hours with IFN-β/γ. Following priming, HSPC-pDCs were stored in RNAprotect Cell Reagent (Qiagen) at −80° C. until total RNA was extracted using the RNeasy Plus Micro Kit (Qiagen), which efficiently eliminates genomic DNA without the need for DNase treatment. The total RNA was send to BGI Europe for RNA-seq. Here, a non-stranded & polyA-selected mRNA library was prepared from the total RNA and subjected to PE100 sequencing using the BGISEQ platform. The samples generated on average about 4.84 Gb bases per sample. Low quality reads were filtered and the remaining reads were mapped to the genome with an average mapping ratio with the reference genome at 92.74%, the average gene mapping ratio at 79.90%. In total, 18,412 genes were identified. Gene expression was calculated based on the reads, differentially expressed genes and gene ontology analyses were analyzed on BGI's software analysis platform Dr. Tom. HSPCs were thawed and 1×10^5 cells were seeded in DC medium with or without supplementation of ascorbic acid (AA). Following 16 days of differentiation with or without AA in the medium, pDCs were isolated by immunomagnetic depletion of non-pDCs, and HSPCs-pDCs were then primed for 72 hours with IFN-β/γ. Following priming, HSPC-pDCs were stored in RNAprotect Cell Reagent (Qiagen) at −80 degrees until total RNA was extracted using the RNeasy Plus Micro Kit (Qiagen), which efficiently eliminates genomic DNA without the need for DNase treatment. The total RNA was send to BGI Europe for RNA-seq. Here, a non-stranded & polyA-selected mRNA library was prepared from the total RNA and subjected to PE100 sequencing using the BGISEQ platform. The samples generated on average about 4.84 Gb bases per sample. Low quality reads were filtered and the remaining reads were mapped to the genome with an average mapping ratio with the reference genome at 92.74%, the average gene mapping ratio at 79.90%. In total, 18,412 genes were identified. Gene expression was calculated based on the reads, differentially expressed genes and gene ontology analyses were analyzed on BGI's software analysis platform Dr. Tom.

O=C1O[C@H]([C@@H](O)CO)C(O)=C1O [ascorbic acid]
Log2 (+AA/−AA) (gene ACP5, Qvalue 4.83E−10): 2.221
+AA FPKM (gene ACP5, −AA FPKM 31.073): 146.980 FPKM
Log2 (+AA/−AA) (gene ADAMDEC1, Qvalue 0.0010135): 3.569
+AA FPKM (gene ADAMDEC1, −AA FPKM 1.127): 13.453 FPKM
Log2 (+AA/−AA) (gene ASS1, Qvalue 2.41E−08): 5.358
+AA FPKM (gene ASS1, −AA FPKM 0.477): 19.263 FPKM
Log2 (+AA/−AA) (gene ATF5, Qvalue 2.01E−54): 2.398
+AA FPKM (gene ATF5, −AA FPKM 24.183): 129.867 FPKM
Log2 (+AA/−AA) (gene AXL, Qvalue 9.98E−29): 4.406
+AA FPKM (gene AXL, −AA FPKM 1.033): 21.903 FPKM
Log2 (+AA/−AA) (gene C3, Qvalue 0.001547846): 3.579
+AA FPKM (gene C3, −AA FPKM 1.227): 14.750 FPKM
Log2 (+AA/−AA) (gene CCL2, Qvalue 5.74E−06): 4.646
+AA FPKM (gene CCL2, −AA FPKM 7.183): 179.503 FPKM
Log2 (+AA/−AA) (gene CCL13, Qvalue 8.06E−14): 6.195
+AA FPKM (gene CCL13, −AA FPKM 0.197): 14.483 FPKM
Log2 (+AA/−AA) (gene CD14, Qvalue 2.98E−25): 4.038
+AA FPKM (gene CD14, −AA FPKM 2.797): 46.303 FPKM
Log2 (+AA/−AA) (gene CD209, Qvalue 9.84E−27): 2.774
+AA FPKM (gene CD209, −AA FPKM 2.460): 16.407 FPKM
Log2 (+AA/−AA) (gene CES1, Qvalue 0.03002647): 3.002
+AA FPKM (gene CES1, −AA FPKM 6.620): 52.940 FPKM
Log2 (+AA/−AA) (gene CFB, Qvalue 2.09E−06): 3.059
+AA FPKM (gene CFB, −AA FPKM 1.257): 10.533 FPKM
Log2 (+AA/−AA) (gene CHI3L1, Qvalue 0.024834793): 2.178
+AA FPKM (gene CHI3L1, −AA FPKM 108.107): 495.927 FPKM
Log2 (+AA/−AA) (gene CTSL, Qvalue 0.031636618): 2.759
+AA FPKM (gene CTSL, −AA FPKM 3.140): 21.410 FPKM
Log2 (+AA/−AA) (gene CXCL10, Qvalue 1.78E−06): 2.352
+AA FPKM (gene CXCL10, −AA FPKM 36.100): 183.493 FPKM
Log2 (+AA/−AA) (gene DEFA1, Qvalue 6.38E−05): 5.728
+AA FPKM (gene DEFA1, −AA FPKM 19.907): 1047.070 FPKM
Log2 (+AA/−AA) (gene DEFA3, Qvalue 0.001704486): 4.431
+AA FPKM (gene DEFA3, −AA FPKM 27.457): 593.480 FPKM
Log2 (+AA/−AA) (gene DEFA4, Qvalue 1.65E−08): 4.651
+AA FPKM (gene DEFA4, −AA FPKM 39.303): 975.213 FPKM
Log2 (+AA/−AA) (gene DNASE1L3, Qvalue 5.63E−10): 2.459
+AA FPKM (gene DNASE1L3, −AA FPKM 1.893): 10.470 FPKM
Log2 (+AA/−AA) (gene FPR3, Qvalue 3.93E−08): 2.200
+AA FPKM (gene FPR3, −AA FPKM 10.853): 50.280 FPKM
Log2 (+AA/−AA) (gene GIMAP4, Qvalue 3.03E−09): 2.409
+AA FPKM (gene GIMAP4, −AA FPKM 3.960): 20.933 FPKM
Log2 (+AA/−AA) (gene GPNMB, Qvalue 4.79E−08): 4.418
+AA FPKM (gene GPNMB, −AA FPKM 4.760): 101.280 FPKM
Log2 (+AA/−AA) (gene GZMB, Qvalue 3.57E−07): 3.081
+AA FPKM (gene GZMB, −AA FPKM 3.773): 31.393 FPKM
Log2 (+AA/−AA) (gene HSD11B1, Qvalue 0.044667374): 3.736
+AA FPKM (gene HSD11B1, −AA FPKM 1.240): 16.590 FPKM
Log2 (+AA/−AA) (gene IFI27, Qvalue 3.56E−04): 4.638
+AA FPKM (gene IFI27, −AA FPKM 14.857): 376.697 FPKM
Log2 (+AA/−AA) (gene IFI44L, Qvalue 1.82E−05): 2.109
+AA FPKM (gene IFI44L, −AA FPKM 17.913): 81.280 FPKM
Log2 (+AA/−AA) (gene IL4I1, Qvalue 5.63E−07): 2.589
+AA FPKM (gene IL4I1, −AA FPKM 4.657): 28.410 FPKM
Log2 (+AA/−AA) (gene IL32, Qvalue 2.92E−23): 2.353
+AA FPKM (gene IL32, −AA FPKM 5.960): 30.560 FPKM
Log2 (+AA/−AA) (gene KYNU, Qvalue 2.56E−05): 2.148
+AA FPKM (gene KYNU, −AA FPKM 6.050): 26.750 FPKM
Log2 (+AA/−AA) (gene LAG3, Qvalue 8.08E−20): 3.418
+AA FPKM (gene LAG3, −AA FPKM 2.770): 29.953 FPKM
Log2 (+AA/−AA) (gene LCN2, Qvalue 1.39E−54): 5.282
+AA FPKM (gene LCN2, −AA FPKM 0.930): 35.670 FPKM
Log2 (+AA/−AA) (gene LILRB4, Qvalue 3.21E−22): 3.922
+AA FPKM (gene LILRB4, −AA FPKM 1.363): 19.833 FPKM
Log2 (+AA/−AA) (gene MAFB, Qvalue 0.00100367): 3.471
+AA FPKM (gene MAFB, −AA FPKM 1.023): 11.443 FPKM
Log2 (+AA/−AA) (gene MMP14, Qvalue 1.27E−18): 4.564
+AA FPKM (gene MMP14, −AA FPKM 1.470): 34.870 FPKM
Log2 (+AA/−AA) (gene MPEG1, Qvalue 3.81E−23): 2.325
+AA FPKM (gene MPEG1, −AA FPKM 22.783): 112.763 FPKM
Log2 (+AA/−AA) (gene MX1, Qvalue 0.026353098): 2.341
+AA FPKM (gene MX1, −AA FPKM 41.507): 211.673 FPKM
Log2 (+AA/−AA) (gene MYL9, Qvalue 9.98E−29): 4.530
+AA FPKM (gene MYL9, −AA FPKM 0.550): 12.580 FPKM
Log2 (+AA/−AA) (gene NUPR1, Qvalue 8.23E−04): 3.257
+AA FPKM (gene NUPR1, −AA FPKM 1.457): 14.303 FPKM
Log2 (+AA/−AA) (gene OLR1, Qvalue 0.030792442): 2.719
+AA FPKM (gene OLR1, −AA FPKM 1.523): 10.067 FPKM
Log2 (+AA/−AA) (gene ORM1, Qvalue 1.09E−20): 4.863
+AA FPKM (gene ORM1, −AA FPKM 3.003): 88.200 FPKM
Log2 (+AA/−AA) (gene P2RY11, Qvalue 3.25E−10): 3.498
+AA FPKM (gene P2RY11, −AA FPKM 0.970): 10.823 FPKM
Log2 (+AA/−AA) (gene PLA2G7, Qvalue 0.030445407): 2.759
+AA FPKM (gene PLA2G7, −AA FPKM 12.103): 86.573 FPKM
Log2 (+AA/−AA) (gene SIGLEC1, Qvalue 0.003740839): 2.998
+AA FPKM (gene SIGLEC1, −AA FPKM 3.223): 26.273 FPKM
Log2 (+AA/−AA) (gene SLC7A7, Qvalue 6.15E−21): 2.460
+AA FPKM (gene SLC7A7, −AA FPKM 9.010): 49.703 FPKM
Log2 (+AA/−AA) (gene SLC15A3, Qvalue 4.84E−06): 2.417
+AA FPKM (gene SLC15A3, −AA FPKM 9.753): 52.340 FPKM
Log2 (+AA/−AA) (gene SPON2, Qvalue 6.39E−10): 2.497
+AA FPKM (gene SPON2, −AA FPKM 4.037): 22.397 FPKM
Log2 (+AA/−AA) (gene ST14, Qvalue 1.06E−29): 2.575
+AA FPKM (gene ST14, −AA FPKM 1.920): 11.390 FPKM
Log2 (+AA/−AA) (gene TLR7, Qvalue 1.13E−20): 2.326
+AA FPKM (gene TLR7, −AA FPKM 2.483): 12.300 FPKM
Log2 (+AA/−AA) (gene USP18, Qvalue 0.029120385): 3.335
+AA FPKM (gene USP18, −AA FPKM 2.210): 22.600 FPKM
Log2 (+AA/−AA) (gene XCR1, Qvalue 2.80E−29): 2.881
+AA FPKM (gene XCR1, −AA FPKM 1.363): 10.463 FPKM
log2 (+AA/−AA) (Table 3, gene FCER1G, Qvalue 0.03): 0.509
